Values joined by “and” are separate entries in the source; they are usually repeats but may differ in a detail not shown here. Identical values can stand only once.
What was measured:
[1] = Metabolic stability in liver microsomes; assay type: in vitro ADME, monkey
Method: The metabolic stability of ZG0128 (the dihydrochloride monohydrate of ZG0163) was evaluated using human, monkey, dog, rat, and mouse liver microsomes as the in vitro models. The percentages of residues for ZG0128 after incubating in human, monkey, dog, rat, and mouse liver microsomes for 60 minutes was 55.5%, 63.1%, 67.1%, 80.3%, and 79.0%, respectively. The CLint values of in vivo clearance were calculated to be 24.1, 21.6, 33.4, 10.7, 26.0 mL/min/kg, respectively. Thus its was speculated that ZG0128 was a medium clearance drug in humans, monkeys, and mice, a high clearance drug in dogs, and a low clearance drug in rats.
Using UPLC-UV/Q-TOF MS, the potential metabolites of ZG0128 in various liver microsomes (human, monkey, dog, rat and mouse liver microsomes) incubation systems were identified and the metabolic pathways of ZG0128 were speculated. The main metabolite of ZG0128 in above five types of liver microsomes were primary alcohol metabolite formed by morpholine ring-opening (M3). […]

[2] = PK, 7-day intragastric dosing; assay type: in vivo, beagles; conditions: 122 mg/animal once daily
Method: Suzhou Zelgen Biopharmaceuticals Co., Ltd. Jaktinib Hydrochloride Tablets Chemical Drug Class 1 New Drug higher than ZG0163, which was higher than the ratio of intravenous administration. […]
produced through first-pass metabolism. Within the dosage range of 61-244 mg, the AUC0-t of ZG0245 increased proportionally with the increasing dosage.
Pharmacokinetics of 7 consecutive days of multi-dose intragastric […]
After 7 consecutive days of intragastric administration (2 tablets once daily, equal […]
respectively, when compared to single-dose administration. The Cmax and AUC0-t of metabolite ZG0245 were 1.33 and 0.95 times compared to single-dose administration.
Thus, there was no significant accumulation of ZG0163 and metabolite ZG0245 after 7 days of consecutive administration. […]
intragastric administration of 61 mg ZG0163.
ZG0128, and the exposure was 93.0% of that of the medium dosage group (122 […]
of that of the medium dosage group (122 mg/animal).
Identification of Metabolites in Rat Samples
Using UPLC-UV/Q-TOF MS, potential metabolites were identified in rat plasma, urine, feces and bile, after single intragastric administration of 30.5 mg/kg ZG0128, as well as metabolites in mice plasma after single intragastric administration of 61 mg/kg ZG0128. […]

IKKβ = IKKβ (Homo sapiens, UniProt O14920); assay: Phosphorylation of IκBα by IKKβ; assay type: biochemical
JNK = assay: Phosphorylation of c-Jun by JNK; assay type: biochemical
Excerpt: Suzhou Zelgen Biopharmaceuticals Co., Ltd. Jaktinib Hydrochloride Tablets Chemical Drug Class 1 New Drug has been completed. The ongoing toxicity tests include a long-term 39-week toxicity test in Beagle dogs by oral administration, a reproductive toxicity test in rats during the teratogenic sensitive period, and a reproductive toxicity test in rabbits during the teratogenic sensitive period.
Preclinical Pharmacodynamic Study
Study on the in vitro Pharmacodynamic Effects of ZG0163 at the […]
In this study, the effects of ZG0163 was similar to those of positive control compounds, ZG0164 and ZG0178.
Study on the in vitro Pharmacodynamic Effects of ZG0163 at the Cellular Level (Ba/F3-EpoR-JAK2V617F cells)
JAK2V617F cell line, the compound ZG0163 was able to induce apoptosis of pathogenic cells and eliminate abnormal cell proliferation by inhibiting the JAK-STAT signaling pathway, thus achieving treatment efficacy in myeloproliferative neoplasms. […]
cell line, manifested as significant inhibition of phosphorylation of JAK2 and its downstream signaling proteins ERK and STAT5. The effects of ZG0163 was similar to those of positive control compounds, ZG0164 and ZG0178.
EpoR-JAK2V617F, which was similar to those of positive control compounds, ZG0164

[3] = PK, single intravenous dose; assay type: in vivo, rats; conditions: 6.1 mg/kg ZG0128 iv
Method: Preclinical Pharmacokinetic Properties
Pharmacokinetic Study of Single Dose Intravenous Administration in […]
ZG0163 administered via intravenous injection had low plasma clearance in rats, […]
The Tmax of the metabolite
ZG0245 in rats was 1.0 h on average, and the plasma exposure (AUC0-t) was 15.0% of the original drug. The pharmacokinetic parameters obtained after the intravenous […]
Table 10. Pharmacokinetic parameters of ZG0163 in rats administered with 6.1 mg/kg of ZG0128 via intravenous injection. […]

IKKβ, sequence (O14920 whole entry, species assumed): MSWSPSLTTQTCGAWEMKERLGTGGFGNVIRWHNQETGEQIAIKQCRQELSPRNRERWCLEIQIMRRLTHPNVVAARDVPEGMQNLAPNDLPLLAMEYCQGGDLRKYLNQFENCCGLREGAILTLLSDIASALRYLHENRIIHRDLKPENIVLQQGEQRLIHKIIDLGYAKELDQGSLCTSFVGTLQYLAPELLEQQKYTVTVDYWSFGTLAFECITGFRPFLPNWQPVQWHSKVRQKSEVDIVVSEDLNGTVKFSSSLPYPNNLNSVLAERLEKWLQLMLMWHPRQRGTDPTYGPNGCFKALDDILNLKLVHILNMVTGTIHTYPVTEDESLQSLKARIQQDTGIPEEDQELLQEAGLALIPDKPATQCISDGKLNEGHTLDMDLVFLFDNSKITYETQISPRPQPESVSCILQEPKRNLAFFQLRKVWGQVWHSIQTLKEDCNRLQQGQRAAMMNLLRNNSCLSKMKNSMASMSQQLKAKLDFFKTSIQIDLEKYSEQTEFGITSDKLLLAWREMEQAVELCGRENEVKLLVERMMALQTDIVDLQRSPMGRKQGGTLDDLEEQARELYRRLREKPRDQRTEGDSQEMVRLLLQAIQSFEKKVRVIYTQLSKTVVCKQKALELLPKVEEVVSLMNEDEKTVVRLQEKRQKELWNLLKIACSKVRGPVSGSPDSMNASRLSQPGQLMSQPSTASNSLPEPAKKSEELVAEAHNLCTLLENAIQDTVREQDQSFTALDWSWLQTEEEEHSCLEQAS

Cl.Cl.O.[2H]C1([2H])COCC([2H])([2H])N1c1ccc(Nc2nccc(-c3ccc(C(=O)NCC#N)cc3)n2)cc1 [ZG0128, Jaktinib Dihydrochloride Monohydrate]
CLint of in vivo clearance [1]: 21.6 mL/min/kg
percentage of residue after 60 minutes [1]: 63.1%

Jaktinib
day on which steady state was reached [2]: 5 days
effect on phosphorylation of IκBα by IKKβ (IKKβ): no significant effects
effect on phosphorylation of c-Jun by JNK (JNK): no significant effects
AUC0-t ([3]; Female): 26000 ng·h/mL
AUC0-∞ ([3]; Female): 26000 ng·h/mL
CL ([3]; Female): 3.23 ± 0.38 mL/min/kg
MRT ([3]; Female): 2.11 h
Vss ([3]; Female): 0.407 ± 0.063 L/kg
t1/2 ([3]; Female): 2.01 h
AUC0-t ([3]; Male): 17700 ng·h/mL
AUC0-∞ ([3]; Male): 17700 ng·h/mL
CL ([3]; Male): 4.92 ± 1.34 mL/min/kg
MRT ([3]; Male): 2.16 h
Vss ([3]; Male): 0.620 ± 0.120 L/kg
t1/2 ([3]; Male): 2.01 h
AUC0-t ([3]; Overall): 21800 ng·h/mL
AUC0-∞ ([3]; Overall): 21900 ng·h/mL
MRT ([3]; Overall): 2.14 h
t1/2 ([3]; Overall): 2.01 h
CL ([3]; Overall, listed as ZG0163): 4.07 mL/min/kg and 4.07 ± 1.28 mL/min/kg
Vss ([3]; Overall, listed as ZG0163): 0.514 L/kg and 0.514 ± 0.145 L/kg

Source: publication PMC7849180 (Frontiers in Pharmacology, 2020)
